Experimental data as given in patent US10987359B2, “Oxadiazepinone derivatives and methods of treating hepatitis B infections” (priority 2016, dated 2021).

Test system: HBV
Assay: HBV replication inhibition assay (BDNA assay) in HepG2.2.15 cells
Format: cell-based
Details: HBV replication assay (BDNA assay), HepG2.2.15 cells; read-out: DNA EC50
Summary of the method: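 Supernatant encapsidated HBV DNA was measured by bDNA after DNase digestion and proteinase K release. Stably HBV-integrated HepG2.2.15 cells had two 3-day compound exposures (0.5% DMSO). Signals were background-subtracted and normalized to DMSO wells, and EC50 was obtained by four-parameter fit.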

Question: Which EC50 does the source give for `COC(=O)NCC1Cn2nc3c(c2C(=O)N(C)O1)CN(C(=O)Nc1ccc(F)c(C#N)c1)[C@H](C)C3` (single isomer, unassigned) [Compound 180_D2, methyl (((4R*,9R)-10-((3-cyano-4-fluorophenyl)carbamoyl)-2,9-dimethyl-1-oxo-1,2,4,5,8,9,10,11-octahydropyrido[4′,3′:3,4]pyrazolo[5,1-d][1,2,5]oxadiazepin-4-yl)methyl)carbamate] here?
Answer: 1 to 100 nM

Question: With `C[C@@H]1Cc2nn3c(c2CN1C(=O)Nc1ccc(F)c(C(F)(F)F)c1)C(=O)N(C)OC(COCC(F)F)C3` (stereo in doubt) [Compound 126_D2, (4R*,9R)-4-((2,2-difluoroethoxy)methyl)-N-(4-fluoro-3-(trifluoromethyl)phenyl)-2,9-dimethyl-1-oxo-1,4,5,8,9,11-hexahydropyrido[4′,3′:3,4]pyrazolo[5,1-d][1,2,5]oxadiazepine-10(2H)-carboxamide] as the compound, how does the EC50 read?
Answer: 1 to 100 nM

Question: `C[C@@H]1Cc2nn3c(c2CN1C(=O)Nc1ccc(F)c(C#N)c1)C(=O)N(C)OC(CNS(C)(=O)=O)C3` (single isomer, unassigned) [Compound 178_D1, (4S*,9R)—N-(3-cyano-4-fluorophenyl)-2,9-dimethyl-4-(methylsulfonamidomethyl)-1-oxo-1,4,5,8,9,11-hexahydropyrido[4′,3′:3,4]pyrazolo[5,1-d][1,2,5]oxadiazepine-10(2H)-carboxamide] was tested. Which EC50 did it give?
Answer: 100 to 500 nM

Question: With `C[C@@H]1Cc2nn3c(c2CN1C(=O)Nc1cc(Cl)c(F)cc1F)C(=O)N(C)OC(CO)C3` (stereo in doubt) [Compound 090_E2, (4R*,9R)—N-(5-chloro-2,4-difluorophenyl)-4-(hydroxymethyl)-2,9-dimethyl-1-oxo-1,4,5,8,9,11-hexahydropyrido[4′,3′:3,4]pyrazolo[5,1-d][1,2,5]oxadiazepine-10(2H)-carboxamide] as the compound, how does the EC50 read?
Answer: 1 to 100 nM

Same assay, conditions: Hepatitis B virus, HepG2.2.15, HBV replication assay (BDNA assay), HepG2.2.15 cells; read-out: DNA EC50

Question: For `C[C@@H]1Cc2nn3c(c2CN1C(=O)Nc1ccc(F)c(C(F)(F)F)c1)C(=O)N(C)OC(CN(C)C)C3` (stereo in doubt) [Compound 098_D1, (4S*,9R)-4-((dimethylamino)methyl)-N-(4-fluoro-3-(trifluoromethyl)phenyl)-2,9-dimethyl-1-oxo-1,4,5,8,9,11-hexahydropyrido[4′,3′:3,4]pyrazolo[5,1-d][1,2,5]oxadiazepine-10(2H)-carboxamide], which EC50 is on record?
Answer: 1 to 100 nM

Question: `CN1O[C@@H](C[S@@+](C)[O-])Cn2nc3c(c2C1=O)CN(C(=O)Nc1ccc(F)c(Cl)c1)CC3` (stereo in doubt) [Compound 049_E3, (R*)—N-(3-chloro-4-fluorophenyl)-2-methyl-4-(((R*)-methylsulfinyl)methyl)-1-oxo-1,4,5,8,9,11-hexahydropyrido[4′,3′:3,4]pyrazolo[5,1-d][1,2,5]oxadiazepine-10(2H)-carboxamide] was tested. Which EC50 did it give?
Answer: 1 to 100 nM

Question: With `CN1O[C@@H](C[S@+](C)[O-])Cn2nc3c(c2C1=O)CN(C(=O)Nc1ccc(F)c(Cl)c1)CC3` (stereo in doubt) [Compound 049_E4, (R*)—N-(3-chloro-4-fluorophenyl)-2-methyl-4-(((S*)-methylsulfinyl)methyl)-1-oxo-1,4,5,8,9,11-hexahydropyrido[4′,3′:3,4]pyrazolo[5,1-d][1,2,5]oxadiazepine-10(2H)-carboxamide] as the compound, how does the EC50 read?
Answer: 100 to 500 nM

Question: How did the EC50 turn out when `CN1OC(CO)Cn2nc3c(c2C1=O)CN(C(=O)Nc1ccc(F)c(Cl)c1F)CC3` (stereo not drawn) [Compound 007, N-(3-chloro-2,4-difluorophenyl)-4-(hydroxymethyl)-2-methyl-1-oxo-1,4,5,8,9,11-hexahydropyrido[4′,3′:3,4]pyrazolo[5,1-d][1,2,5]oxadiazepine-10(2H)-carboxamide] was run?
Answer: 1 to 100 nM

Question: With `CN1OC(COCC(F)(F)F)Cn2nc3c(c2C1=O)CN(C(=O)Nc1ccc(F)c(Cl)c1)CC3` (stereo not drawn) [Compound 106, N-(3-chloro-4-fluoro-phenyl)-2-methyl-1-oxo-4-(2,2,2-trifluoroethoxymethyl)-5,8,9,11-tetrahydro-4H-pyrido[2,3]pyrazolo[2,4-d][1,2,5]oxadiazepine-10-carboxamide] as the compound, how does the EC50 read?
Answer: 1 to 100 nM

Question: Which EC50 does the source give for `CNC(=O)C1Cn2nc3c(c2C(=O)N(C)O1)CN(C(=O)Nc1ccc(F)c(Cl)c1F)CC3` (stereo not drawn) [Compound 118, N10-(3-chloro-2,4-difluorophenyl)-N4,2-dimethyl-1-oxo-1,4,5,8,9,11-hexahydropyrido[4′,3′:3,4]pyrazolo[5,1-d][1,2,5]oxadiazepine-4,10(2H)-dicarboxamide] here?
Answer: 1 to 100 nM

Question: `C[C@@H]1Cc2nn3c(c2CN1C(=O)Nc1cc(F)c(F)c(Cl)c1)C(=O)N(C)OCC3` [Compound 081, (R)—N-(3-chloro-4,5-difluorophenyl)-2,9-dimethyl-1-oxo-1,4,5,8,9,11-hexahydropyrido[4′,3′:3,4]pyrazolo[5,1-d][1,2,5]oxadiazepine-10(2H)-carboxamide] was tested. Which EC50 did it give?
Answer: 1 to 100 nM

Question: For `CC1Cn2nc3c(c2C(=O)N(C)O1)CN(C(=O)Nc1ccc(F)c(Cl)c1)CC3` (stereo not drawn) [Compound 062, N-(3-chloro-4-fluorophenyl)-2,4-dimethyl-1-oxo-1,4,5,8,9,11-hexahydropyrido[4′,3′:3,4]pyrazolo[5,1-d][1,2,5]oxadiazepine-10(2H)-carboxamide], which EC50 is on record?
Answer: 1 to 100 nM

Question: Which EC50 does the source give for `C[C@@H]1Cc2nn3c(c2CN1C(=O)Nc1ccc(F)c(C(F)(F)F)c1)C(=O)N(C)OC(CO)C3` (stereo in doubt) [Compound 082_E1, (4S*,9R)—N-(4-fluoro-3-(trifluoromethyl)phenyl)-4-(hydroxymethyl)-2,9-dimethyl-1-oxo-1,4,5,8,9,11-hexahydropyrido[4′,3′:3,4]pyrazolo[5,1-d][1,2,5]oxadiazepine-10(2H)-carboxamide] here?
Answer: 1 to 100 nM

Question: With `CN1N=C(CO)Cn2nc3c(c2C1=O)CN(C(=O)Nc1ccc(F)c(Cl)c1)CC3` [Compound 227, N-(3-chloro-4-fluorophenyl)-4-(hydroxymethyl)-2-methyl-1-oxo-1,2,5,8,9,11-hexahydro-10H-pyrido[4′,3′:3,4]pyrazolo[5,1-d][1,2,5]triazepine-10-carboxamide] as the compound, how does the EC50 read?
Answer: 1 to 100 nM

Question: `CN(CC(F)F)C(=O)C1Cn2nc3c(c2C(=O)N(C)O1)CN(C(=O)Nc1ccc(F)c(Cl)c1)CC3` (stereo not drawn) [Compound 134, N10-(3-chloro-4-fluorophenyl)-N4-(2,2-difluoroethyl)-N4,2-dimethyl-1-oxo-1,4,5,8,9,11-hexahydropyrido[4′,3′:3,4]pyrazolo[5,1-d][1,2,5]oxadiazepine-4,10(2H)-dicarboxamide] was tested. Which EC50 did it give?
Answer: 1 to 100 nM

Question: For `Cc1cc(NC(=O)N2CCc3nn4c(c3C2)C(=O)N(C)OC(CF)C4)ccc1F` (single isomer, unassigned) [Compound 043_E1, (S*)—N-(4-fluoro-3-methylphenyl)-4-(fluoromethyl)-2-methyl-1-oxo-1,4,5,8,9,11-hexahydropyrido[4′,3′:3,4]pyrazolo[5,1-d][1,2,5]oxadiazepine-10(2H)-carboxamide], which EC50 is on record?
Answer: 1 to 100 nM

Question: With `CN1OC(C(N)=O)Cn2nc3c(c2C1=O)CN(C(=O)Nc1ccc(F)c(Cl)c1)CC3` (stereo not drawn) [Compound 072, N10-(3-chloro-4-fluoro-phenyl)-2-methyl-1-oxo-5,8,9,11-tetrahydro-4H-pyrido[2,3]pyrazolo[2,4-d][1,2,5]oxadiazepine-4,10-dicarboxamide] as the compound, how does the EC50 read?
Answer: 1 to 100 nM

Question: Which EC50 does the source give for `CC1Cc2nn3c(c2CN1C(=O)Nc1cccc(Cl)c1)C(=O)N(C)OC(CO)C3` (stereo not drawn) [Compound 070, N-(3-chlorophenyl)-4-(hydroxymethyl)-2,9-dimethyl-1-oxo-5,8,9,11-tetrahydro-4H-pyrido[2,3]pyrazolo[2,4-d][1,2,5]oxadiazepine-10-carboxamide] here?
Answer: 1 to 100 nM

Question: How did the EC50 turn out when `CN1OC(CNCC(F)F)Cn2nc3c(c2C1=O)CN(C(=O)Nc1ccc(F)c(Br)c1)CC3` (single isomer, unassigned) [Compound 190_E1, (S*)—N-(3-bromo-4-fluorophenyl)-4-(((2,2-difluoroethyl)amino)methyl)-2-methyl-1-oxo-1,4,5,8,9,11-hexahydropyrido[4′,3′:3,4]pyrazolo[5,1-d][1,2,5]oxadiazepine-10(2H)-carboxamide] was run?
Answer: 1 to 100 nM

Question: How did the EC50 turn out when `Cc1cc(NC(=O)N2Cc3c(nn4c3C(=O)N(C)OC(CNCC(F)F)C4)C[C@H]2C)ccc1F` (stereo in doubt) [Compound 185_D1, (4S*,9R)-4-(((2,2-difluoroethyl)amino)methyl)-N-(4-fluoro-3-methylphenyl)-2,9-dimethyl-1-oxo-1,4,5,8,9,11-hexahydropyrido[4′,3′:3,4]pyrazolo[5,1-d][1,2,5]oxadiazepine-10(2H)-carboxamide] was run?
Answer: 1 to 100 nM

Question: Which EC50 does the source give for `C[C@@H]1Cc2nn3c(c2CN1C(=O)Nc1ccnc(Br)c1F)C(=O)N(C)OCC3` [Compound 078, (R)—N-(2-bromo-3-fluoropyridin-4-yl)-2,9-dimethyl-1-oxo-1,4,5,8,9,11-hexahydropyrido[4′,3′:3,4]pyrazolo[5,1-d][1,2,5]oxadiazepine-10(2H)-carboxamide] here?
Answer: 1 to 100 nM

Question: For `CN1OC(CF)Cn2nc3c(c2C1=O)CN(C(=O)Nc1ccc(F)c(Br)c1)CC3` (single isomer, unassigned) [Compound 040_E1, (S*)—N-(3-bromo-4-fluorophenyl)-4-(fluoromethyl)-2-methyl-1-oxo-1,4,5,8,9,11-hexahydropyrido[4′,3′:3,4]pyrazolo[5,1-d][1,2,5]oxadiazepine-10(2H)-carboxamide], which EC50 is on record?
Answer: 1 to 100 nM

Question: For `C=CCN1OCCn2nc3c(c2C1=O)CN(C(=O)Nc1ccc(F)c(Cl)c1)CC3` [Compound 067, 2-allyl-N-(3-chloro-4-fluoro-phenyl)-1-oxo-5,8,9,11-tetrahydro-4H-pyrido[2,3]pyrazolo[2,4-c][1,2,5]oxadiazepine-10-carboxamide], which EC50 is on record?
Answer: 1 to 100 nM

Question: For `C[C@@H]1Cc2nn3c(c2CN1C(=O)Nc1ccc(F)c(C#N)c1)C(=O)N(C)OC(C)(C)C3` [Compound 213, (R)—N-(3-cyano-4-fluorophenyl)-2,4,4,9-tetramethyl-1-oxo-1,4,5,8,9,11-hexahydropyrido[4′,3′:3,4]pyrazolo[5,1-d][1,2,5]oxadiazepine-10(2H)-carboxamide], which EC50 is on record?
Answer: 1 to 100 nM
